In patent publication US8735623B2, “Process for preparing creatine amides” (priority 2009, dated 2014):
Like-named read-outs stand apart in the source and are kept apart here.

Columns and labels:
[1] = 20-30 g per day for a few days; cited from earlier work
[2] = test system: rat model of focal ischemia; conditions: score 18 max, 3 min
Description: Cerebral ischemia was induced by the method mentioned above. A solution of amides of creatine or saline was administered intravenous. […] Testing the animals was carried out before ischemia, on a second and third days after ischemia-reperfusion at a fixed time for exclusion of behavioral changes by means of circadian rhythm. Spontaneous activity, symmetrical limb movement, climbing onto vertical reticulated wall, body proprioreception, touching to vibriss were assessed. A maximum point by assigned score was 18 (lack of neurological deficit), minimum—3 (severe neurological deficit).

[3] = test system: rat model of focal ischemia; conditions: 30 min ischemia, 48 hour reperfusion, male Wistar rat
Description: Research of the neuroprotective action of amides of creatine was carried out in a rat model of focal ischemia (male, Wistar, 12÷14 weeks, 220÷240 g). Anesthesia was performed by sodium thiopental 60 mg/kg. A solution of amides of creatine in saline was administered intravenous to the first group of animals 45 min before ischemia, saline was administered to a control group, a solution of amides of creatine in saline was administered intragastric per os by an enteral tube a day before ischemia to the second group of animals 3 times per day, saline was administered to a control group.
Standard time of ischemia constituted 30 min, standard time of reperfusion constituted 48 hour. The animals were sacrificed, brain slices with thickness of 2 mm were produced for assessing a brain damage volume. The damage area was determined by staining with […] followed by data acquisition and analysis of stained slice digital images. A brain damage coefficient, i.e. a relation of damage area to the slice surface was calculated (Table 1).

[4] = Stability in artificial gastric secretion (HPLC); conditions: 37° C.
Description: 10 mg of amides of creatine was dissolved in 20 mL of artificial gastric secretion for study of amides of creatine stability, solution aliquot was place into vial for chromatograph. Vial with solution was place into chromatograph autosampler at 37° C. Initial concentration of amides of creatine and its relative change in gastric secretion were determined by HPLC at indicated temperature (Table 3).

[5] = 37° C.
Description: Stability of amides of creatine in human plasma was assessed by relative change in concentration of amides of creatine in plasma. 1 mL of plasma was mixed with 0.2 mL of amides of creatine aqueous solution with concentration 5 mg/mL, a mixture was kept at a temperature of 37° C., aliquot of volume 0.2 mL was drawn in fixed time ranges, mixed with 0.02 mL of trifluoroacetic acid 10% solution, a precipitate was centrifuged at […] for 20 min. A concentration of amides of creatine in supernatant was determined by HPLC method (Table 4).

[6] = in vivo; cited from earlier work
[7] = i./v., 150 mg/kg, 45 min before ischemia
[8] = per os, 3 × 150 mg/kg, a day before ischemia

Compound	Stability in gastric secretion ([4]; 0 hour) [%]	Stability in gastric secretion ([4]; 1 hour) [%]	Stability in gastric secretion ([4]; 3 hours) [%]	Stability in gastric secretion ([4]; 5 hours) [%]	Stability in human plasma ([5]; 0 hour) [%]	Stability in human plasma ([5]; 0.25 hour) [%]	Stability in human plasma ([5]; 0.5 hours) [%]	Stability in human plasma ([5]; 1 hour) [%]	other results
CN(CC(=O)O)C(=N)N.O [creatine monohydrate]	–	–	–	–	–	–	–	–	Increasing of total creatine content in human skeletal muscles [1]: more than 20%
CCNC(=O)C(Cc1ccccc1)NC(=O)CN(C)C(=N)N.Cl (stereo not shown) [Agent 5, Creatinyl-Phenylalanine Ethylamide Hydrochloride]	100	100	98	99	100	100	97	87	Neurological condition by Garcia score, 2nd day after ischemia ([2]; 50 mg/kg intravenous): 11 ± 1; Neurological condition by Garcia score, 3rd day after ischemia ([2]; 50 mg/kg intravenous): 14 ± 1; Neurological condition by Garcia score, 1 day before ischemia ([2]; 50 mg/kg intravenous): 18 ± 0; Brain damage coefficient ([3]; i./v., 50 mg/kg, 45 min before ischemia): 14.0 ± 1.1%
CN(CC(=O)O)C(=N)N [creatine, Creatine]	–	–	–	–	–	–	–	–	Extent of absorbtion from gastro-intestinal tract [6]: 1 to 14%
CC(=O)O.CCOC(=O)CNC(=O)CNC(=O)CN(C)C(=N)N [Agent 2, Creatinyl-Glycyl-Glycine Ethyl Ester Acetate]	100	100	98	98	100	100	97	90	Brain damage coefficient ([3]; i./v., 200 mg/kg, 45 min before ischemia): 12.1 ± 2.0%
CCNC(=O)CNC(=O)CN(C)C(=N)N.O=C(O)C(O)C(O)C(=O)O [Agent 3, Creatinyl-Glycine Ethylamide Tartrate]	100	100	97	98	100	100	95	90	Neurological condition by Garcia score, 2nd day after ischemia ([2]; 150 mg/kg intravenous): 11 ± 2; Neurological condition by Garcia score, 3rd day after ischemia ([2]; 150 mg/kg intravenous): 16 ± 1; Neurological condition by Garcia score, 1 day before ischemia ([2]; 150 mg/kg intravenous): 18 ± 0; Brain damage coefficient [3, 7]: 12.0 ± 1.7%; Brain damage coefficient [3, 8]: 13.9 ± 3.3%
CC(=O)O.CC(C)OC(=O)CNC(=O)CN(C)C(=N)N [Agent 1, Creatinyl-Glycine iso-Propyl Ester Acetate]	100	100	99	97	100	100	99	91	Neurological condition by Garcia score, 2nd day after ischemia ([2]; 150 mg/kg intravenous): 10 ± 2; Neurological condition by Garcia score, 3rd day after ischemia ([2]; 150 mg/kg intravenous): 15 ± 2; Neurological condition by Garcia score, 1 day before ischemia ([2]; 150 mg/kg intravenous): 18 ± 0; Brain damage coefficient [3, 7]: 11.2 ± 2.3%; Brain damage coefficient [3, 8]: 14.2 ± 3.0%
CC(=O)O.CC(=O)O.CCOC(=O)[C@@H](N)CCCCNC(=O)CN(C)C(=N)N [Agent 4, N^ε-Creatinyl-Lysine Ethyl Ester Diacetate]	100	100	98	97	100	100	100	89	Neurological condition by Garcia score, 2nd day after ischemia ([2]; 100 mg/kg intravenous): 14 ± 1; Neurological condition by Garcia score, 3rd day after ischemia ([2]; 100 mg/kg intravenous): 17 ± 2; Neurological condition by Garcia score, 1 day before ischemia ([2]; 100 mg/kg intravenous): 18 ± 0; Brain damage coefficient ([3]; i./v., 100 mg/kg, 45 min before ischemia): 13.3 ± 3.2%; Brain damage coefficient ([3]; per os, 3 × 100 mg/kg, a day before ischemia): 15.2 ± 2.9%
CC(=O)O.CCOC(=O)CCCNC(=O)CN(C)C(=N)N [Agent 6, Creatinyl-γ-Aminobutyric acid Ethyl Ester acetate]	100	100	99	99	–	–	–	–	Neurological condition by Garcia score, 2nd day after ischemia ([2]; 45 mg/kg intravenous): 14 ± 0; Neurological condition by Garcia score, 3rd day after ischemia ([2]; 45 mg/kg intravenous): 16.0 ± 1.1; Neurological condition by Garcia score, 1 day before ischemia ([2]; 45 mg/kg intravenous): 18 ± 0; Brain damage coefficient ([3]; i./v., 45 mg/kg, 45 min before ischemia): 13.1 ± 1.0%
